{"source": "patent US20130085064A1", "about": "“PESTICIDAL MIXTURES CONTAINING ISOXAZOLINE DERIVATIVES AND INSECTICIDE OR NEMATOICIDAL BIOLOGICAL AGENT” (priority 2010, published 2013)", "format_in_all_cases": "in vivo", "key": {"[1]": {"test_system": "Spodoptera littoralis (Egyptian cotton leaf worm)", "experiment": "Spodoptera littoralis larvicide L1, feeding/contact, cotton leaf discs", "settings": "single compound", "procedure,_shortened": "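Cotton leaf discs on agar sprayed with test solutions, dried, then infested with 10 L1 larvae. Mortality scored 5 days after treatment; 3 replicates per treatment. For mixtures, expected action is calculated by the Colby formula and synergism factor taken as observed/expected.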"}, "[2]": {"test_system": "Tetranychus urticae (two spotted spider mite)", "experiment": "Tetranychus urticae contact/feeding activity on bean plants, adult mortality", "procedure,_shortened": "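Mixed-age mite populations on bean plants; plants sprayed with diluted test solutions 1 day after infestation. Adult mortality scored 1 and 8 days after treatment, 2 replicates per treatment. Expected combination action calculated by the Colby formula.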"}, "[3]": {"test_system": "Heliothis virescens (tobacco budworm)", "experiment": "Heliothis virescens eggs in 24-well microtiter plate on artificial diet, larval mortality", "procedure,_shortened": "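Eggs 0–24 h old on artificial diet were treated by pipetting test solutions in DMSO. Larval mortality scored after 4 days; combination effects assessed against Colby-expected action, with synergism factor = observed/expected.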"}, "[4]": {"test_system": "Tetranychus urticae (two-spotted spider mite)", "experiment": "Tetranychus urticae bean leaf discs in 24-well microtiter plates, mixed population mortality", "settings": "8 days", "description": "The action to be expected E for a given active ingredient combination obeys the so-called COLBY formula and can be calculated as follows (COLBY, S.R. “Calculating synergistic and antagonistic responses of herbicide combination”. Weeds, Vol. 15, pages 20-22; 1967):\nppm=milligrams of active ingredient (=a.i.) per liter of spray mixture X=% action by active ingredient A) using p ppm of active ingredient Y=% action by active ingredient B) using q ppm of active ingredient.\nAccording to COLBY, the expected (additive) action of active ingredients A)+B) using p+q ppm of active ingredient is\nIf the action actually observed (O) is greater than the expected action (E), then the action of the combination is super-additive, i.e. there is a synergistic effect. In mathematical terms the synergism factor SF corresponds to O/E. In the agricultural practice an SF of ≧1.2 indicates significant improvement over the purely complementary addition of activities (expected activity), while an SF of ≦0.9 in the practical application routine signals a loss of activity compared to the expected activity.\nTetranychus Urticae (Two-Spotted Spider Mite)\nBean leaf discs on agar in 24-well microtiter plates are sprayed with test solutions (DMSO). After drying, the leaf discs are infested with mite populations of mixed ages. 8 days later, discs are checked for mixed population mortality."}, "[5]": {"test_system": "Heliothis virescens (tobacco budworm)", "experiment": "Heliothis virescens ovo-larvicide, feeding/contact, eggs on filter paper in Petri dishes", "settings": "for AVERAGE DEAD IN % (LARVAE): single compound, 7 days", "procedure,_shortened": "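30-35 fresh eggs (0-24 h old) on filter paper over artificial diet in Petri dishes, treated with 0.8 ml diluted test solution. Egg and larval mortality scored after 7 days; 3 replicates per treatment. Expected combination action per Colby; synergism factor = observed/expected.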"}}, "note": "Several values for one entry are separate records, joined by “and”; a condition that tells them apart may be missing. Identical values can stand only once.", "data": [{"substance": "abamectin", "values": [{"measurement": "AVERAGE DEAD IN % AFTER 5 DAYS", "setting": "[1]; 0.4 PPM AI", "value": "10% and 7%"}, {"measurement": "AVERAGE DEAD IN % AFTER 5 DAYS", "setting": "[1]; 0.8 PPM AI", "value": "13% and 10%"}, {"measurement": "AVERAGE DEAD IN % AFTER 5 DAYS", "setting": "[1]; 1.6 PPM AI", "value": "40% and 20%"}, {"measurement": "AVERAGE DEAD IN % AFTER 8 DAYS", "setting": "[2]; 0.0015 ppm alone", "value": 25, "unit": "%"}, {"measurement": "AVERAGE DEAD IN % AFTER 8 DAYS", "setting": "[2]; 0.003 ppm alone", "value": 20, "unit": "%"}, {"measurement": "AVERAGE DEAD IN % AFTER 8 DAYS", "setting": "[2]; 0.006 ppm alone", "value": 25, "unit": "%"}, {"measurement": "AVERAGE DEAD IN % AFTER 1 DAY", "setting": "[2]; Abamectin alone 0.0015 ppm AI", "value": 0, "unit": "%"}, {"measurement": "AVERAGE DEAD IN % AFTER 1 DAY", "setting": "[2]; Abamectin alone 0.003 ppm AI", "value": 0, "unit": "%"}, {"measurement": "AVERAGE DEAD IN % AFTER 1 DAY", "setting": "[2]; Abamectin alone 0.006 ppm AI", "value": 0, "unit": "%"}, {"measurement": "AVERAGE DEAD IN %", "setting": "[3]; single compound at 0.2 ppm AI", "value": 0, "unit": "%"}, {"measurement": "AVERAGE DEAD IN %", "setting": "[3]; single compound at 0.4 ppm AI", "value": 45, "unit": "%"}, {"measurement": "AVERAGE DEAD IN %", "setting": "[3]; single compound at 0.8 ppm AI", "value": 68, "unit": "%"}, {"measurement": "AVERAGE DEAD IN %", "setting": "[3]; single compound at 1.6 ppm AI", "value": 78, "unit": "%"}, {"measurement": "AVERAGE DEAD IN %", "setting": "[3]; single compound at 3.2 ppm AI", "value": 100, "unit": "%"}, {"measurement": "AVERAGE DEAD IN %", "setting": "[3]; single compound at 6.4 ppm AI", "value": 100, "unit": "%"}, {"measurement": "AVERAGE DEAD IN %", "setting": "[4]; 0.0002 ppm alone", "value": 0, "unit": "%"}, {"measurement": "AVERAGE DEAD IN %", "setting": "[4]; 0.0004 ppm alone", "value": 0, "unit": "%"}, {"measurement": "AVERAGE DEAD IN %", "setting": "[4]; 0.0008 ppm alone", "value": 0, "unit": "%"}, {"measurement": "AVERAGE DEAD IN %", "setting": "[4]; 0.0015 ppm alone", "value": 0, "unit": "%"}, {"measurement": "AVERAGE DEAD IN %", "setting": "[4]; 0.003 ppm alone", "value": 0, "unit": "%"}, {"measurement": "AVERAGE DEAD IN %", "setting": "[4]; 0.006 ppm alone", "value": 0, "unit": "%"}, {"measurement": "AVERAGE DEAD IN %", "setting": "[4]; 0.0125 ppm alone", "value": 0, "unit": "%"}, {"measurement": "AVERAGE DEAD IN %", "setting": "[4]; 0.025 ppm alone", "value": 0, "unit": "%"}, {"measurement": "AVERAGE DEAD IN %", "setting": "[4]; 0.05 ppm alone", "value": 85, "unit": "%"}, {"measurement": "AVERAGE DEAD IN %", "setting": "[4]; 0.1 ppm alone", "value": 85, "unit": "%"}, {"measurement": "AVERAGE DEAD IN %", "setting": "[4]; Abamectin alone, 0.0002 ppm, Table 120", "value": 0, "unit": "%"}, {"measurement": "AVERAGE DEAD IN %", "setting": "[4]; Abamectin alone, 0.0004 ppm, Table 120", "value": 0, "unit": "%"}, {"measurement": "AVERAGE DEAD IN %", "setting": "[4]; Abamectin alone, 0.0008 ppm, Table 120", "value": 0, "unit": "%"}, {"measurement": "AVERAGE DEAD IN %", "setting": "[4]; Abamectin alone, 0.0015 ppm, Table 120", "value": 0, "unit": "%"}, {"measurement": "AVERAGE DEAD IN %", "setting": "[4]; Abamectin alone, 0.003 ppm, Table 120", "value": 0, "unit": "%"}, {"measurement": "AVERAGE DEAD IN %", "setting": "[4]; Abamectin alone, 0.006 ppm, Table 120", "value": 0, "unit": "%"}, {"measurement": "AVERAGE DEAD IN %", "setting": "[4]; Abamectin alone, 0.0125 ppm, Table 120", "value": 0, "unit": "%"}, {"measurement": "AVERAGE DEAD IN %", "setting": "[4]; Abamectin alone, 0.025 ppm, Table 120", "value": 0, "unit": "%"}, {"measurement": "AVERAGE DEAD IN %", "setting": "[4]; Abamectin alone, 0.05 ppm, Table 120", "value": 70, "unit": "%"}, {"measurement": "AVERAGE DEAD IN %", "setting": "[4]; Abamectin alone, 0.1 ppm, Table 120", "value": 80, "unit": "%"}, {"measurement": "activity on eggs", "setting": "[5]; egg mortality, 7 days incubation", "value": "inactive"}, {"measurement": "AVERAGE DEAD IN % (LARVAE)", "setting": "[5]; 0.025 ppm AI", "value": 3, "unit": "%"}, {"measurement": "AVERAGE DEAD IN % (LARVAE)", "setting": "[5]; 0.05 ppm AI", "value": 37, "unit": "%"}, {"measurement": "AVERAGE DEAD IN % (LARVAE)", "setting": "[5]; 0.1 ppm AI", "value": 53, "unit": "%"}]}]}
